Entries after “also recorded” stand apart in the source; their conditions may differ.
What was measured:
[1] = system: SW480 (human colon carcinoma) cell line; test: MTT cell proliferation assay, SW480; assay type: cell-based; details: 1, 3 or 6 μM; MTT after 24, 48, 72 and 96 hours
Protocol: (§1) The cell line B16F1 (mouse melanoma) were cultivated in DMEM+10% serum and seeded at 5000 cells/well in a total volume of 50 μl. The SW480 and SW620 (human colon carcinoma) cell lines were cultivated in L15 medium+10% fetal bovine serum and seeded at 20,000 cells per well in a total volume of 50 μl. SARP-1(Fz)delta7-Fc was added immediately at a concentration of 1, 3 or 6 μM.
(§2) Cell proliferation assay was evaluated by reduction of 3-(4,5-dimethylthiazol-2-yl)-2,5-diphenyltetrazolium bromide (MTT) after 24, 48, 72 and 96 hours of culture. For the test of cell proliferation, 5 μl and 10 μl of MTT solution were added to the cultures of B16F1, SW480 and SW620 cells, respectively. After the incubation period, cells were lysed in 200 μl DMSO, and optic density was determined at 570 and 630 nm. The positive control for inhibition of cell proliferation was DKK1-Fc used at a concentration of 1 μM during the experiment.

[2] = system: unilateral ureter ligation-induced renal fibrosis; test: Unilateral ureter obstruction (UUO) murine model of renal fibrosis; assay type: in vivo, C57BL/6 mice; details: subcutaneous, 1.5 mg/ml, once a day, 21 days of treatment; p<0.05
Protocol: The in vivo activity of SARP-1(Fz)[…]-Fc was tested in an experimental model of obstructive nephropathy, which is unilateral ureter ligation-induced renal fibrosis (Vielhauer et al., 2001). Female inbred C57BL/6 mice weighing 20 to 26 g were kept in macrolone type III cages under a 12 h light/dark cycle. Water and standard chow were available ad libitum. Under general ether anesthesia, a low midline abdominal incision was performed and the ligation of the left distal ureter was made with a 2/0 Mersilene suture, resulting in a unilateral ureter obstruction (UUO). Unobstructed contralateral kidneys served as controls. […] The first dose was administered immediately after UUO once a day for 21 days Mice were killed at 7 and 21 days after UUO by cervical dislocation under general anesthesia with inhaled ether. From each mouse cranial kidney halves were used for histological assessment. Ligated and contralateral kidney tissue was fixed for 24 hours at room temperature in 4% neutral buffered formalin and then embedded in paraffin. For quantitative analysis, 4 μm horizontal sections were cut. Every fifth of fifteen subsequent sections, chosen by systematic uniformly random sampling, was used for analysis. […]

[3] = system: B16F1 (mouse melanoma) cell line; test: MTT cell proliferation assay, B16F1; assay type: cell-based
Protocol: as §1, §2

[4] = system: murine Wnt1 and human Wnt2; test: Wnt antagonistic activity, LEF-luciferase reporter assay with mixed Inducer and Reporter 293T cells; assay type: cell-based
Protocol: 293T cells expressing murine Wnt1 and human Wnt2 (Inducer Cells) and 293T cells expressing Luciferase under the control of LEF-site-linked promoter (Reporter Cells) were mixed at an equal ratio and seeded in 100 μl medium per well in a 96-well microtiter plate. The Inducer Cells by overexpressing Wnt1 and Wnt2 at its surface were able to induce an activation of the Wnt signaling pathway triggered by the interaction of the Wnt proteins with its receptor at the cell membrane of the Reporter Cells. The Reporter Cells in response to Wnt pathway activation expressed luciferase by the activation of Wnt responsive genes such as LEF.
The mixture was composed of about 10,000 Inducer Cells and 10,000 Reporter Cells per well. SARP-1(Fz)delta7-Fc was added to the culture medium at different concentrations (from 300 to 5 μg/ml). After 48 hours of incubation, the medium was discarded, and 40 μl lysis buffer were added to the cells. After 15 minutes of lysis on an orbital shaker at 4° C., the samples were submitted to two cycles of freezing and thawing followed by rigid shaking using a vortex (for 2 minutes) and sedimentation by centrifugation at 2000 rpm in V-shape microtiter plates.
Luciferase activities were normalized by total protein content in the lysate. Protein quantification was performed on 5 μl cell lysate using the BCA kit (Pierce) as known in the art. To measure the luciferase activity, 10 μl of cell lysate each was transferred into a 96-well microtiter plate. 15 μl of luciferin reagent was added to the sample and the quantification of the luminescence was counted during 10 seconds.
The results were expressed in percentage of Wnt activation. Thus, the maximal luciferase activity obtained with the mixture of Inducer and Reporter Cells corresponded to 100%.

[5] = system: lung fibroblasts of patients with interstitial pulmonary fibrosis (IPF); test: BrdU incorporation (cell proliferation ELISA) in primary lung fibroblasts from IPF patients; assay type: cell-based, human; details: for PDGF-increased BrdU incorporation: PDGF 10 ng/ml
Protocol: To evaluate the effect of SARP-1(Fz)delta7-Fc, lung fibroblasts were obtained from lung explants of patients with interstitial pulmonary fibrosis (IPF) (N=3) and controls (N=3). Fibroblasts were cultured in 96 well cell culture plates in DMEM medium with high glucose (25 mM) and 10% Fetal Clone II (Hyclone) until they reached approximately 50% confluence. Fetal Clone II is an alternative to fetal bovine serum (FBS). Then the cells were cultured for 48 hours with Fetal Clone II at a concentration of 1%. […] Bromodeoxyuridine (5-bromo-2-deoxyuridine, BrdU) was added 24 hours later at a final concentration of 100 μM. After 24 hours of incubation, cells were fixed and lysed. Cell proliferation was evaluated with the cell proliferation ELISA BrdU colorimetric assay (Roche Diagnostics, Meylan, France) ELISA. The experiments were performed in the basal condition (without PDGF) and in the presence of PDGF (10 ng/ml), All experimental conditions were tested in triplicates and the mean value was calculated. For each experimental condition, the incorporation of BrdU was expressed as a percentage of the incorporation observed in the control condition in the same culture.

[6] = system: human hepatic stellate cells; test: Incorporation of 3H-thymidine into DNA of PDGF-BB-stimulated primary human hepatic stellate cells; assay type: cell-based; details: PDGF-BB 10 ng/ml; 10, 1 and 0.1 μg/ml
Protocol: (§3) Human hepatic stellate cells (HSCs) were isolated from wedge sections of normal human liver unsuitable for transplantation. Liver tissue was digested with collagenase/pronase. HSC were separated from other liver nonparenchymal cells by ultracentrifugation over gradients of Stractan (Cellsep isotonic solution; Larex Inc., St. Paul, Minn.). HSC were cultured on plastic culture dishes in Iscove's modified Dulbecco's medium supplemented with 0.6 U/mL of insulin, 2.0 mmol/L of glutamine, 0.1 mmol/L of nonessential amino acids, 1.0 mmol/L of sodium pyruvate, antibiotic-antimycotic solution (all provided by Gibco Laboratories, Grand Island, N.Y.), and 20% fetal bovine serum (Imperial Laboratories, Andover, UK). All experiments were performed in triplicate and results are expressed as MEAN+SD. Statistical significance was evaluated by Student t test.
(§4) For this group of experiments the stimulus of choice was human recombinant PDGF-BB at the standard dose of 10 ng/ml. Canrenone (10 μM), whose inhibitory effect has been previously shown in the same cell preparations (Caligiuri et al., 2003), was used as a positive control of inhibition.
HSC were plated in 24 well plastic dishes and grown to confluence in complete cell culture medium containing 20% of fetal bovine serum (FBS). HSC were then deprived of serum for 48 hours and stimulated with PDGF-BB for additional 24 hours. […]

[7] = system: human hepatic stellate cells; test: Cell proliferation assay (cell number/well) of PDGF-BB-stimulated primary human hepatic stellate cells; assay type: cell-based
Protocol: as §3, §4
HSC were plated in 12 well dishes at 30% confluence in Iscove's modified Dulbecco's medium supplemented with 0.6 U/mL insulin, 2.0 mmol/L of glutamine, 0.1 mmol/L nonessential amino acids, 1.0 mmol/L of sodium pyruvate, antibiotic-antimycotic solution (all from Gibco Laboratories, Grand Island, N.Y.), and 20% fetal bovine serum (Imperial Laboratories, Andover, UK). After 24 hours the HSC were incubated with serum-free medium containing PDGF-BB to induce activation at a concentration of 10 ng/ml with or without SARP-1(Fz)delta7-Fc at a concentration of 10, 1 and 0.1 μg/ml. HSC were harvested and cell number/well were determined after 2, 4, and 6 days of culture. At each time point fresh medium and experimental conditions were added at the remaining wells.

[8] = system: SW620 (human colon carcinoma) cell line; test: MTT cell proliferation assay, SW620; assay type: cell-based; details: 1, 3 or 6 μM; MTT after 24, 48, 72 and 96 hours
Protocol: as §1, §2

IC50 ([4]; 48 hours incubation, 300 to 5 μg/ml, read-out: IC50, reduction of luciferase activity): 750 nM
EC50 ([4]; FIG. 3 legend, read-out: EC50, inhibition of Wnt 1 and Wnt 2 activation in a reporter cellular assay): 750 nM
Substance: SARP-1(Fz)delta7-Fc: Fusion of mature SARP-1 without Netrin domain, lacking first seven N-terminal amino acids, with human IgG1 Fc region
inhibition of cell proliferation of SW480 [1]: able to inhibit the cell proliferation; also recorded: inhibited cell proliferation
alfa smooth muscle actin (α-SMA) accumulation, myofibroblast marker, histological analysis [2]: reduction; also recorded: decreased
renal fibrosis by morphometric analysis of the changes in the tubular interstitium [2]: reduction of renal fibrosis
level of inhibition of B16F1 proliferation compared with positive control DKK1-Fc (1 μM) ([3]; 6 μM): comparable to the one obtained by using the positive control
inhibition of proliferation of B16F1 melanoma cell line ([3]; 1 to 6 μM, MTT after 24, 48, 72 and 96 hours): significant inhibition; also recorded: inhibited cell proliferation
Emax reached, inhibition of Wnt 1 and Wnt 2 activation ([4]; FIG. 3 legend): 80%
maximum inhibition of luciferase activity ([4]; at concentration from 150 to 300 μg/ml): 80%
PDGF-increased BrdU incorporation ([5]; 1 μg/ml): no effect
PDGF-increased BrdU incorporation ([5]; 10 μg/ml): no effect
PDGF-increased BrdU incorporation ([5]; 100 μg/ml): profoundly inhibited
PDGF-increased BrdU incorporation ([5]; concentration not given): reduced BrdU incorporation
BrdU incorporation, basal condition ([5]; without PDGF, in b213 at the highest dose tested): reduced BrdU incorporation
PDGF-induced DNA synthesis in primary human hepatic stellate cells cultures [6]: reduced significantly
inhibitory effect on PDGF-induced hepatic stellate cells ([7]; 10.0 μg/ml after 2, 4 and 6 days of culture): more prominent
PDGF-induced cell growth of hepatic stellate cells ([7]; 10.0 μg/ml for 2, 4 or 6, PDGF-BB 10 ng/ml): significantly decreased
inhibitory effect on PDGF-induced hepatic stellate cells ([7]; dose of 1 μg/ml after 2 days of culture): statistically significant
inhibition of cell proliferation of SW620 [8]: able to inhibit the cell proliferation; also recorded: inhibited cell proliferation

From patent US20100260785A1, “SARP-1 Fusion Proteins and Uses Thereof” (priority 2007, published 2010)
